# Laboratory results taken from PMC6591251, “Discovery of potent necroptosis inhibitors targeting RIPK1 kinase activity for the treatment of inflammatory disorder and cancer metastasis” (Cell Death & Disease, 2019).
# Like-named read-outs stand apart in the source and are kept apart here.
# What was measured:
# TRKA = TRKA (Homo sapiens, UniProt P04629); test: RBC kinase panel; type: biochemical; design: purchased Reaction Biology Corporation
# Procedure: (§1) PK68 was tested at 1 μM in duplicate against a panel of 369 human kinases at Reaction Biology Corporation. Results are viewed in the human kinome phylogenetic tree.
# (§2) ^a Compound PK68 was tested at 1 μM in duplicate against 369 kinases using the RBC kinase panel service of Reaction Biology Corporation. All the ATP concentrations used were 10 μM. […] Full protocol details are available at http://www.reactionbiology.com.
# TNIK = TNIK (Homo sapiens, UniProt Q9UKE5); test: RBC kinase panel; type: biochemical; design: purchased Reaction Biology Corporation
# Sequence of TNIK (Q9UKE5 whole entry): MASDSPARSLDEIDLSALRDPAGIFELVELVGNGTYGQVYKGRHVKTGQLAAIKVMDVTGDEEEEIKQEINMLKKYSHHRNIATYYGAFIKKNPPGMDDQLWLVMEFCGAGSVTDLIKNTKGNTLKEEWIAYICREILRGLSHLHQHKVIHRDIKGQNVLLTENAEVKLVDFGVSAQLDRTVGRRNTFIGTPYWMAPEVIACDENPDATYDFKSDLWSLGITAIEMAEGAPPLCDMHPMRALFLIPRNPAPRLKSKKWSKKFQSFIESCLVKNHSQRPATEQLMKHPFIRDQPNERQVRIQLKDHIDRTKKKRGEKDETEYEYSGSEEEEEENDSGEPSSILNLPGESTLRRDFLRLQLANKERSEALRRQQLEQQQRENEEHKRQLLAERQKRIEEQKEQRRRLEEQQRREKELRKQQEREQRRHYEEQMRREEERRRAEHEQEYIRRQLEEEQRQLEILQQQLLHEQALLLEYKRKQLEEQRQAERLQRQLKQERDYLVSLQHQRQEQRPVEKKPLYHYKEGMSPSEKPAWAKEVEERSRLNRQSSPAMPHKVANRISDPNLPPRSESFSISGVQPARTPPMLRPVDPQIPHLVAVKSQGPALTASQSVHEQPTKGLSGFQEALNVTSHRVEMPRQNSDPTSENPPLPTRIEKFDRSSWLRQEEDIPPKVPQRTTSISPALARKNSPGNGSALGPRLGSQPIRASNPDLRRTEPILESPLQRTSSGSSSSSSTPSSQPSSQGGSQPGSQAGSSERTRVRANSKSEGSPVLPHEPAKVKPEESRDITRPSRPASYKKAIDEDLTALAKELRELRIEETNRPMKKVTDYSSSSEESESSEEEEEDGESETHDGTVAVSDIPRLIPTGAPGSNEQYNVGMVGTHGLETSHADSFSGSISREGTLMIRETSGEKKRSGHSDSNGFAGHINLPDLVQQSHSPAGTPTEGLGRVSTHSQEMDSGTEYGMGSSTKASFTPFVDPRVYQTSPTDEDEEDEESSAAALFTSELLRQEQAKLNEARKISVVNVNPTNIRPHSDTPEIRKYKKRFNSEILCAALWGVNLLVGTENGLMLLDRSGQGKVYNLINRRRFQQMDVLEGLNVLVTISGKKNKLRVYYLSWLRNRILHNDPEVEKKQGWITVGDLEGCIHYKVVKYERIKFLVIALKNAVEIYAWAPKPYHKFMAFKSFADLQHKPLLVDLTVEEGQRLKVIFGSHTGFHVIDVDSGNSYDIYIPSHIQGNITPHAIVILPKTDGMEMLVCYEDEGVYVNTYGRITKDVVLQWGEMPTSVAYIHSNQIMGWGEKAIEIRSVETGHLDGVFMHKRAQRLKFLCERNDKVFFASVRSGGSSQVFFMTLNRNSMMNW
# Procedure: as §1, §2
# [1] = Pharmacokinetic profile in mice; type: in vivo; conditions: ICR, mouse, plasma; for AUC(0-t): read-out: AUC0-24
# Procedure: Encouraged by our overall satisfactory in vitro potency and selectivity data for PK68, we decided to assess its in vivo pharmacokinetic profile.
# Data represent mean value ± standard deviation. b Plasma pharmacokinetic parameters of PO and IV. c, d C57BL/6 mice (n = 5) were treated with the indicated daily oral gavage dosing of PK68 for successive 14 days. Body weight (c) and hematoxylin-eosin (H&E) staining (d) of mice were analyzed. Control mice received an equal amount of vehicle. Magnification: ×40. Data represent mean value ± standard deviation TEXT PRINTED IN THE PICTURE: (b) no label printed: Tmax (hr): 0.5 (PO (Gavage)); Cmax (ng/mL): 2423 (PO (Gavage)); AUC0-24 (ng/mL*hr): 4821 (PO (Gavage)); AUC0-24 (ng/mL*hr): 1588 (IV (Bolus)); AUCINF (ng/mL*hr): 4897 (PO (Gavage)); AUCINF (ng/mL*hr): 1590 (IV (Bolus)); t1/2 (hr): 1.3 (PO (Gavage)); t1/2 (hr): 1.0 (IV (Bolus)); MRT (hr): 1.8 (PO (Gavage)); MRT (hr): 0.8 (IV (Bolus)); CL (mL/hr/kg): 1258 (IV (Bolus)); CL (mL/min/kg): 21 (IV (Bolus)); Vss (mL/kg): 1009 (IV (Bolus)); Vss (L/kg): 1.0 (IV (Bolus)); F(%): 61 (PO (Gavage)) DOUBTS OF THE COPYIST ABOUT THIS PICTURE: Panel b prints no substance label with the PK table. The name PK68 is printed only in panels c and d, so the label is left empty.
# Judging by the PK time curve, the observed plasma levels of PK68 were above its EC50 over a period of 8 h. […] These doses were meant to determine the preliminary toxicity effects of PK68 (Fig. 6c). […] We further performed histology of various tissues from mice that had received 14-day treatment of PK68.
# [2] = tested on: B16-F10 or RFP-LL/2 cells; test: Proliferation rate and invasion ability without endothelial monolayer; type: cell-based, mouse; conditions: B16-F10 or RFP-LL/2, in vitro
# Procedure: Studies have shown that RIPK1 kinase activity is involved in the promotion of tumor metastasis through death receptor 6-dependent necroptosis of endothelial cells[22] or VEGF-dependent activation of vascular permeability. We thus evaluated the therapeutic effect of PK68 on lung metastasis of mouse melanoma B16-F10 cells in vivo. […] After 2 weeks, the metastasis of B16-F10 cells was measured by histological analysis and assessed as the number of metastasis nodules in the lung. […] Two weeks after intravenous injection of RFP-LL/2 cells, RFP^+ LL/2 cells were isolated from the tumor tissues by flow cytometer sorting and no signal of phosphorylated RIPK1 was detected in these tumors cells (Supplementary Fig. 22). Six hours after intravenous injection of RFP-LL/2 cells into C57BL/6 mice, the RFP-LL/2 cells have extravasated through blood vessels into the lung (Supplementary Fig. 23). […] Further, we evaluated the effect of PK68 on the tumor cell transmigration across the cultured endothelium. We isolated CD31^+ endothelial cells from the lungs and performed the transendothelial migration assay as previously reported. […]
# (A-B) B16-F10 and RFP-LL/2 cells were pretreated with indicated compounds for 1h and then cell viability was measured by cell Titer-Glo. (C) B16-F10 and RFP-LL/2 cells were pre-treated with indicated compounds and invasion ability was measured by the transwell assay.
# Sequence of TRKA (P04629 33-796): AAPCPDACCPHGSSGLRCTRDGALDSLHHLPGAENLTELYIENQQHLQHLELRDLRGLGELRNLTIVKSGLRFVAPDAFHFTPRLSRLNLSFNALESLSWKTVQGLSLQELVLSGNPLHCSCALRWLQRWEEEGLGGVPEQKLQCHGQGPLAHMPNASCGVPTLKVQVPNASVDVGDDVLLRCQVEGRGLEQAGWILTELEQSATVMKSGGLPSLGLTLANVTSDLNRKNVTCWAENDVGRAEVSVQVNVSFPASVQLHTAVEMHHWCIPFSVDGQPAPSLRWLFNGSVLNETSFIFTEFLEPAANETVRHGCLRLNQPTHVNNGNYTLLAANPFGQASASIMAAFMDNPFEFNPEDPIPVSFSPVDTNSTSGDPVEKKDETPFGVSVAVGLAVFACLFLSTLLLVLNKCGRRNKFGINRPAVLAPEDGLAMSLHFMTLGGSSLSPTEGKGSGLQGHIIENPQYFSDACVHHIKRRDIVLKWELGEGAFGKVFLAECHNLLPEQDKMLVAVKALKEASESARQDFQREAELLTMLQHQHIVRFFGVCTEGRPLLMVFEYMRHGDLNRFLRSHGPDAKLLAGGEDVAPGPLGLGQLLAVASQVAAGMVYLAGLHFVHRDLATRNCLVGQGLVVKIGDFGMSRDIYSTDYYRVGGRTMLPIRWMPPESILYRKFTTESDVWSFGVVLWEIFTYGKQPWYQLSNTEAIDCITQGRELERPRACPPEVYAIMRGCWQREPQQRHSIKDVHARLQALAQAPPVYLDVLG
structure (smiles),measurement,setting,value
"CC(=O)Nc1nc2ccc(-c3cnc(C)c(NC(=O)OC4CCCCC4)c3)cc2s1 [PK68, cyclohexyl (5-(2-acetamidobenzo[d]thiazol-6-yl)-2-methylpyridin-3-yl)carbamate]",Activity%,"TRKA; 1 μM, ATP 10 μM, Data1, Data2",28.42%
same,activity at 1 µM,"TRKA; 1 μM, ATP 10 μM, Data1, Data2",29.1%
same,inhibition at 1 µM,TRKA; at 1000 nM,> 50%
same,Activity%,"TNIK; 1 μM, ATP 10 μM, Data1, Data2",38.77%
same,activity at 1 µM,"TNIK; 1 μM, ATP 10 μM, Data1, Data2",39%
same,inhibition at 1 µM,TNIK; at 1000 nM,> 50%
same,clearance,"[1]; iv, 2 mg/kg, IV (Bolus)",21 mL/min/kg
same,Vd,"[1]; iv, 2 mg/kg, IV (Bolus), read-out: Vss",1 L/kg
same,AUC(0-inf),"[1]; 2 mg/kg, IV (Bolus)",1590 ng·h/mL
same,MRT,"[1]; 2 mg/kg, IV (Bolus)",0.8 h
same,half-life,"[1]; 2 mg/kg, IV (Bolus)",1 h
same,AUC(0-t),"[1]; 2 mg/kg, IV (Bolus)",1590 ng·h/mL
same,AUC(0-inf),"[1]; 10 mg/kg, PO (Gavage)",4900 ng·h/mL
same,MRT,"[1]; 10 mg/kg, PO (Gavage)",1.8 h
same,half-life,"[1]; 10 mg/kg, PO (Gavage)",1.3 h
same,AUC(0-t),"[1]; 10 mg/kg, PO (Gavage)",4820 ng·h/mL
same,bioavailability,"[1]; 10 mg/kg, PO (Gavage), read-out: F(%) oral bioavailability",61%
same,Cmax,"[1]; po, orally 10 mg/kg, read-out: plasma concentration translated from Cmax",~4 µM
same,Tmax,"[1]; PO (Gavage), 10 mg/kg",0.5 h
same,Cmax,"[1]; PO (Gavage), 10 mg/kg, read-out: Cmax",2420 ng/mL
same,proliferation rate and invasion ability,[2],no obvious influence
